# Assay results reported in publication PMC10287669, “[1,2,4]triazolo[3,4-b][1,3,4]thiadiazole derivatives as new therapeutic candidates against urease positive microorganisms: design, synthesis, pharmacological evaluations, and in silico studies” (Scientific Reports, 2023).
# Read-outs that look alike come from different tables or passages of the source.
# How the values were obtained:
# Proteus mirabilis = experiment: In vitro antimicrobial activity, CLSI microbroth dilution (bacteria); assay type: cell-based; details: clinical isolate
# Description: M27-A3 for yeasts). The compounds were diluted, and stock solutions of 20 mg/mL in DMSO were prepared. Mueller-Hinton Broth (HiMedia) and RPMI-1640 (Sigma) were prepared as recommended for antimicrobial susceptibility testing of bacterial and fungal strains, respectively. Two-fold dilutions were made in the range of 1-512 μg/mL for tested compounds. […] All experiments were performed in duplicates.
# P. mirabilis = experiment: Anti-ureolytic activity, colorimetric urea broth microdilution; assay type: cell-based, Proteus mirabilis; details: read after 24 h, means ± SD of 3 independent experiments; for IC50: Proteus mirabilis, read-out: urease inhibitory activity IC50 (µg/mL) ± SD
# Description: (§1) The colorimetric microdilution technique using urea broth media (Merck) was used to examine the ureolytic activity of C. neoformans (H99), and clinical isolate of P. mirabilis treated with tested substances (supplemented with glucose; pH = 6 for C. neoformans). Compounds in the concentration range of 1 to 512 μg/mL were exposed to ureolytic microorganisms, and the color of the medium was evaluated visually and spectroscopically at 560 nm after three days for C. neoformans and 24 h for P. mirabilis. The positive control, which included ureolytic bacteria but no drugs, changed color from yellow to dark pink or magenta. This shifts, allowing the determination of the inhibitory activity of compounds against the urease activity of organisms even without a microliter plate reader[45],[46].
# Jack bean urease = Jack bean urease (Canavalia ensiformis, UniProt P07374); experiment: Screening of urease inhibitory activities (indophenol method, enzymatic); assay type: biochemical
# Description: Urease inhibition effects of the synthesized compounds were determined according to the previously reported procedure[37]–[39]. Briefly, 100 μL of the synthesized compounds at different concentrations was added to 850 μL of urea as substrate and 50 μL urease (3 mg/mL) in phosphate buffer, pH = 7.4). After 30 min, to 100 μL of the incubated solution, 500 μL of solution I (5.0 g phenol and 25.0 mg sodium nitroprusside in 500 mL water) was added, followed by the addition of 500 μL of solution II (2.5 g sodium hydroxide, 4.2 mL sodium hypochlorite, and 5% chlorine in 500 mL water) which was further incubated at 37 °C for 30 min. The absorbance of blue-colored indophenol of each cell is related to the percentage of enzyme inhibition using the following equation at 625 nm. The IC50 values for all synthesized compounds were calculated using GraphPad Prism software (GraphPad Software, Inc., San Diego, CA).
# [1] = tested on: Cryptococcus neoformans (H99); experiment: In vitro antimicrobial activity, CLSI microbroth dilution (yeast); assay type: cell-based
# Description: The antimicrobial activities of all derivatives against C. neoformans (H99), and clinical isolate of P. mirabilisas urease positive microorganism, were tested as recommended by the Clinical and Laboratory Standards Institute (CLSI) (M07-A9 for bacteria; M27-A3 for yeasts). The compounds were diluted, and stock solutions of 20 mg/mL in DMSO were prepared. Mueller–Hinton Broth (HiMedia) and RPMI-1640 (Sigma) were prepared as recommended for antimicrobial susceptibility testing of bacterial and fungal strains, respectively. Two-fold dilutions were made in the range of 1–512 μg/mL for tested compounds. The microbroth dilution test was accomplished using a 96-well microtiter plate containing growth control (drug free wellls) and sterility control (only broth media). The antimicrobial susceptibility test was accomplished by adding a cell suspension adjusted to the 0.5 McFarland standard (1–2 × 10^8 CFU/mL for bacterial strains; 1–5 × 10^6 cells/mL for yeast) to different concentrations of tested compounds. […] All experiments were performed in duplicates.
# C. neoformans (H99) = experiment: Anti-ureolytic activity, colorimetric urea broth microdilution; assay type: cell-based, Cryptococcus neoformans; details: read after three days, means ± SD of 3 independent experiments; for IC50: Cryptococcus neoformans, 72 h
# Description: as §1
# urease [2] = details: cited from earlier work
# urease [3] = biological target: urease (Canavalia ensiformis, UniProt P07374); experiment: Kinetic study of urease inhibition (Lineweaver–Burk); assay type: biochemical, Jack bean
# Description: The kinetic study for the inhibition of urease by compound 6a was carried out using four different concentrations of inhibitor. Compound 6a was tested at […] concentrations against urease for the kinetic study. The Lineweaver–Burk reciprocal plot was constructed by plotting 1/V against 1/[S] at variable concentrations of the substrate urea (3.12 to 100 mM). The inhibition constant Ki was calculated by the plot of slopes versus the corresponding concentrations of compound 6a.
# [4] = urease enzymatic assessment, mean ± SD of three independent experiments, read-out: IC50 (µM) ± SD
# [5] = C. neoformans, read-out: urease inhibitory activity IC50 (µg/mL) ± SD
# [6] = read-out: urease inhibitory activity IC50 (µg/mL) ± SD, C. neoformans
# Chain of Jack bean urease (P07374 whole entry, looked up): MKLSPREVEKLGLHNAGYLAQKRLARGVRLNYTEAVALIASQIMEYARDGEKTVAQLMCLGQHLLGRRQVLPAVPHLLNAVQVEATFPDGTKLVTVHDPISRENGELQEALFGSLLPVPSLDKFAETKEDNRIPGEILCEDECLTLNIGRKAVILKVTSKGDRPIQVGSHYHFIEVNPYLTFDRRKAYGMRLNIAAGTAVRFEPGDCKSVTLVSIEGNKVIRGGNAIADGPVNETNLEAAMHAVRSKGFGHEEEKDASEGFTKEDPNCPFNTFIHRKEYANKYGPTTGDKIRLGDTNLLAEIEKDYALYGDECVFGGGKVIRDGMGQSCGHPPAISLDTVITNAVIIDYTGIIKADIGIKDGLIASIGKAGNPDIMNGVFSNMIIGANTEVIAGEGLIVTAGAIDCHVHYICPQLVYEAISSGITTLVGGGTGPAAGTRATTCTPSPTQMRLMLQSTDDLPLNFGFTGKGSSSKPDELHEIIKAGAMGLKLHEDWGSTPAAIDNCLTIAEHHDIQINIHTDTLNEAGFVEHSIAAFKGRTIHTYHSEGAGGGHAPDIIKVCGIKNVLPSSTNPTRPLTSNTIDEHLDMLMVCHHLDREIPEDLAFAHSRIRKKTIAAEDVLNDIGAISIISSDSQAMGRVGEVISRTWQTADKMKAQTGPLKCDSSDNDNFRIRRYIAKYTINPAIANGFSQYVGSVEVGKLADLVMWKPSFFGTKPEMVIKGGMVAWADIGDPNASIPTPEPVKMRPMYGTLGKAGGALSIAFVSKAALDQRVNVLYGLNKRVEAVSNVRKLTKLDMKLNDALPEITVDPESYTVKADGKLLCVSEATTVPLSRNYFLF
# Chain of urease (Canavalia ensiformis, UniProt P07374) (P07374 whole entry, looked up): as above
SMILES,MIC (Proteus mirabilis; read-out: MIC),IC50 (P. mirabilis),IC50 (Jack bean urease),MIC ([1]; read-out: MIC),melting point,IC50 (C. neoformans (H99); [5]),further results
"O=[N+]([O-])c1ccc(CSc2nn3c(-c4ccccc4)nnc3s2)cc1 [Compound 6l, 6-((4-nitrobenzyl)thio)-3-phenyl-[1,2,4]triazolo[3,4-b][1,3,4]thiadiazole]",,,,,,,MIC (Proteus mirabilis): 256 µg/mL; urease inhibitory activity IC50 (µg/mL) ± SD (P. mirabilis): 91.8 ± 7.0 µg/mL; IC50 (Jack bean urease; [4]): 2.22 ± 0.18 µM; MIC [1]: > 256 µg/mL; urease inhibitory activity IC50 (µg/mL) ± SD (C. neoformans (H99); C. neoformans): 113.6 ± 5.4 µg/mL
"Brc1cccc(CSc2nn3c(-c4ccccc4)nnc3s2)c1 [Compound 6j, 6-((3-bromobenzyl)thio)-3-phenyl-[1,2,4]triazolo[3,4-b][1,3,4]thiadiazole]",256 µg/mL,112 ± 6.9 µg/mL,1.05 ± 0.34 µM,> 256 µg/mL,225 to 227 °C,111 ± 4.8 µg/mL,
"Clc1cccc(CSc2nn3c(-c4ccccc4)nnc3s2)c1 [Compound 6f, 6-((3-chlorobenzyl)thio)-3-phenyl-[1,2,4]triazolo[3,4-b][1,3,4]thiadiazole]",256 µg/mL,73.2 ± 5.5 µg/mL,1.25 ± 0.19 µM,1 µg/mL,216 to 218 °C,87.5 ± 8.1 µg/mL,MFC/MBC [1]: 2 µg/mL
O=C(NC1CCCCC1)C(c1cccs1)N(C(=O)CSc1nnc(-c2ccc([N+](=O)[O-])o2)s1)c1ccccc1 (centres unmarked) [F],,,,,,,improvement in the inhibitory potency against urease compared to thiourea (urease [2]): tenfold; mode of inhibition (urease [2]; urease): non-competitive
"Brc1ccccc1CSc1nn2c(-c3ccccc3)nnc2s1 [Compound 6i, 6-((2-bromobenzyl)thio)-3-phenyl-[1,2,4]triazolo[3,4-b][1,3,4]thiadiazole]",256 µg/mL,109 ± 6.2 µg/mL,1.59 ± 0.14 µM,> 256 µg/mL,210 to 212 °C,112 ± 6.7 µg/mL,
"Clc1ccccc1CSc1nn2c(-c3ccccc3)nnc2s1 [Compound 6e, 6-((2-chlorobenzyl)thio)-3-phenyl-[1,2,4]triazolo[3,4-b][1,3,4]thiadiazole]",256 µg/mL,93.3 ± 5.2 µg/mL,8.32 ± 1.21 µM,> 256 µg/mL,224 to 226 °C,102 ± 3.3 µg/mL,MIC (µg/mL) [1]: almost inactive
"c1ccc(CSc2nn3c(-c4ccccc4)nnc3s2)cc1 [Compound 6a, 6-(benzylthio)-3-phenyl-[1,2,4]triazolo[3,4-b][1,3,4]thiadiazole]",256 µg/mL,78.2 ± 8.5 µg/mL,0.87 ± 0.09 µM,> 256 µg/mL,217 to 219 °C,,Ki (urease [3]): 1370 nM; type of inhibition (urease [3]; Lineweaver–Burk plot): competitive; improvement in the activity vs positive control (Jack bean urease; vs thiourea): around 27 times; IC50 (C. neoformans (H99); [6]): > 124 µg/mL
"Clc1ccc(CSc2nn3c(-c4ccccc4)nnc3s2)cc1Cl [Compound 6h, 6-((3,4-dichlorobenzyl)thio)-3-phenyl-[1,2,4]triazolo[3,4-b][1,3,4]thiadiazole]",256 µg/mL,74.5 ± 4.7 µg/mL,1.41 ± 0.32 µM,0.5 µg/mL,215 to 217 °C,83.7 ± 3.2 µg/mL,MFC/MBC [1]: 0.5 µg/mL
CCNc1nnc(Cc2nc3ccccc3c(=O)n2Cc2ccc(F)cc2)s1 [E],,,,,,,IC50 (urease [2]; urease): 1.88 ± 0.17 µg/mL
"Fc1cccc(CSc2nn3c(-c4ccccc4)nnc3s2)c1 [Compound 6c, 6-((3-fluorobenzyl)thio)-3-phenyl-[1,2,4]triazolo[3,4-b][1,3,4]thiadiazole]",256 µg/mL,79.8 ± 3.5 µg/mL,1.4 ± 0.29 µM,> 256 µg/mL,216 to 218 °C,117 ± 6.4 µg/mL,
Cc1ccc(-n2c(C(O)c3ccccc3)n[nH]c2=S)cc1 (centres unmarked) [A],,,,,,,"IC50 (urease [2]; urease, read-out: IC50): 16700 ± 178 nM"
"OC(Cn1cncn1)(Cn1cncn1)c1ccc(F)cc1F [Fluconazole, reference compound]",,,,2 µg/mL,,,
"Brc1ccc(CSc2nn3c(-c4ccccc4)nnc3s2)cc1 [Compound 6k, 6-((4-bromobenzyl)thio)-3-phenyl-[1,2,4]triazolo[3,4-b][1,3,4]thiadiazole]",,,,,,,MIC (Proteus mirabilis): 256 µg/mL; urease inhibitory activity IC50 (µg/mL) ± SD (P. mirabilis): 113.7 ± 4.6 µg/mL; IC50 (Jack bean urease; [4]): 1.53 ± 0.17 µM; MIC [1]: > 256 µg/mL; urease inhibitory activity IC50 (µg/mL) ± SD (C. neoformans (H99); C. neoformans): 118.7 ± 5.5 µg/mL
Cc1ncc([N+](=O)[O-])n1Cc1cn(Cc2ccc(F)cc2)nn1 [C],,,,,,,"IC50 (urease [2]; urease, read-out: IC50): 1980 ± 250 nM"
"Cc1cccc(CSc2nn3c(-c4ccccc4)nnc3s2)c1 [Compound 6n, 6-((3-methylbenzyl)thio)-3-phenyl-[1,2,4]triazolo[3,4-b][1,3,4]thiadiazole]",,,,,,,MIC (Proteus mirabilis): 256 µg/mL; urease inhibitory activity IC50 (µg/mL) ± SD (P. mirabilis): 96.8 ± 4.7 µg/mL; IC50 (Jack bean urease; [4]): 1.23 ± 0.56 µM; MIC [1]: > 256 µg/mL; urease inhibitory activity IC50 (µg/mL) ± SD (C. neoformans (H99); C. neoformans): 112.3 ± 4.6 µg/mL
"CSc1nn2c(-c3ccccc3)nnc2s1 [Compound 6o, 6-(methylthio)-3-phenyl-[1,2,4]triazolo[3,4-b][1,3,4]thiadiazole]",,,,,213 to 215 °C,,
COc1ccc(NC(=O)NCc2cn(Cc3ccc(Cl)cc3Cl)nn2)cc1 [B],,,,,,,"IC50 (urease [2]; urease, read-out: IC50): 22810 ± 50 nM"
"Clc1ccc(CSc2nn3c(-c4ccccc4)nnc3s2)cc1 [Compound 6g, 6-((4-chlorobenzyl)thio)-3-phenyl-[1,2,4]triazolo[3,4-b][1,3,4]thiadiazole]",256 µg/mL,75.4 ± 6.1 µg/mL,1.68 ± 0.73 µM,2 µg/mL,218 to 220 °C,,MFC/MBC [1]: 4 µg/mL; urease inhibitory activity IC50 (µg/mL) ± SD (C. neoformans (H99); C. neoformans): 94.3 ± 5.9 µg/mL; IC50 (C. neoformans (H99); [6]): 93.3 µg/mL
"Fc1ccc(CSc2nn3c(-c4ccccc4)nnc3s2)cc1 [Compound 6d, 6-((4-fluorobenzyl)thio)-3-phenyl-[1,2,4]triazolo[3,4-b][1,3,4]thiadiazole]",256 µg/mL,91 ± 6.4 µg/mL,1.01 ± 0.13 µM,> 256 µg/mL,199 to 201 °C,118 ± 8.6 µg/mL,
"Cc1ccccc1CSc1nn2c(-c3ccccc3)nnc2s1 [Compound 6m, 6-((2-methylbenzyl)thio)-3-phenyl-[1,2,4]triazolo[3,4-b][1,3,4]thiadiazole]",,,,,,,MIC (Proteus mirabilis): 256 µg/mL; urease inhibitory activity IC50 (µg/mL) ± SD (P. mirabilis): 95.7 ± 6.6 µg/mL; IC50 (Jack bean urease; [4]): 1.6 ± 0.23 µM; MIC [1]: > 256 µg/mL; urease inhibitory activity IC50 (µg/mL) ± SD (C. neoformans (H99); C. neoformans): 110.9 ± 3.8 µg/mL
Cc1cccc(C)c1Nc1nnc(-c2ccc(Cl)cc2)s1 [D],,,,,,,"IC50 (urease [2]; urease, read-out: IC50): 214700 ± 160 nM"
"NC(N)=S [Thiourea, reference compound]",,,,,,,IC50 (Jack bean urease; [4]): 22.5 ± 2.34 µM
"Fc1ccccc1CSc1nn2c(-c3ccccc3)nnc2s1 [Compound 6b, 6-((2-fluorobenzyl)thio)-3-phenyl-[1,2,4]triazolo[3,4-b][1,3,4]thiadiazole]",256 µg/mL,87.3 ± 4.9 µg/mL,1.51 ± 0.21 µM,> 256 µg/mL,190 to 192 °C,111 ± 7.4 µg/mL,
